Experimental data published in the NIST ThermoML archive (doi:10.1016/j.tca.2016.07.005).
Numbers after ± are expanded uncertainties.

Assay: xn = mol fraction of the nth substance listed
Conditions: 101.3 kPa, Liquid; for viscosity: Concentric cylinders viscometry; for mass density: Vibrating tube method

O=S1(=O)CCCC1 [sulfolane] + CCCC[n+]1ccn(C)c1.O=S(=O)([N-]S(=O)(=O)C(F)(F)F)C(F)(F)F
Conditions | mass density [kg/m3] | viscosity [mPa·s]
293.15 K, x2 = 0.1 | 1315.1 ± 2.1 | 16.7 ± 1.7
293.15 K, x2 = 0.1999 | 1345.9 ± 2.1 | 19.8 ± 2
293.15 K, x2 = 0.3001 | 1368.7 ± 2.1 | 23.8 ± 2.4
293.15 K, x2 = 0.4 | 1386.1 ± 2.1 | 28.2 ± 2.8
293.15 K, x2 = 0.5001 | 1400.1 ± 2.1 | 32.9 ± 3.3
293.15 K, x2 = 0.5999 | 1411.3 ± 2.1 | 38 ± 3.8
293.15 K, x2 = 0.7 | 1420.8 ± 2.1 | 43.2 ± 4.3
293.15 K, x2 = 0.7995 | 1428.6 ± 2.1 | 49.6 ± 5
293.15 K, x2 = 0.8985 | 1435.3 ± 2.1 | 55.1 ± 5.5
298.15 K, x2 = 0 | 1266.4 ± 2 | 11.9 ± 1.2
298.15 K, x2 = 0.1 | 1310.6 ± 2.1 | 14.8 ± 1.5
298.15 K, x2 = 0.1999 | 1341.3 ± 2.1 | 17 ± 1.7
298.15 K, x2 = 0.3001 | 1364.6 ± 2.1 | 19.9 ± 2
298.15 K, x2 = 0.4 | 1381.3 ± 2.1 | 23.2 ± 2.3
298.15 K, x2 = 0.5001 | 1395.3 ± 2.1 | 26.7 ± 2.7
298.15 K, x2 = 0.5999 | 1406.5 ± 2.1 | 30.8 ± 3.1
298.15 K, x2 = 0.7 | 1416 ± 2.1 | 34.7 ± 3.5
298.15 K, x2 = 0.7995 | 1423.8 ± 2.1 | 39.8 ± 4
298.15 K, x2 = 0.8985 | 1430.5 ± 2.1 | 44.4 ± 4.5
303.15 K, x2 = 0 | 1259.4 ± 2 | 10.5 ± 1.1
303.15 K, x2 = 0.1 | 1306.1 ± 2.1 | 12.8 ± 1.3
303.15 K, x2 = 0.1999 | 1336.7 ± 2.1 | 14.3 ± 1.4
303.15 K, x2 = 0.3001 | 1359.1 ± 2.1 | 16.5 ± 1.7
303.15 K, x2 = 0.4 | 1376.6 ± 2.1 | 18.8 ± 1.9
303.15 K, x2 = 0.5001 | 1390.5 ± 2.1 | 21.5 ± 2.2
303.15 K, x2 = 0.5999 | 1401.7 ± 2.1 | 24.7 ± 2.5
303.15 K, x2 = 0.7 | 1411.1 ± 2.1 | 27.3 ± 2.7
303.15 K, x2 = 0.7995 | 1419 ± 2.1 | 31.1 ± 3.1
303.15 K, x2 = 0.8985 | 1425.7 ± 2.1 | 35.1 ± 3.5
313.15 K, x2 = 0 | 1251.7 ± 2 | 8.1 ± 0.8
313.15 K, x2 = 0.1 | 1297 ± 2.1 | 9.7 ± 1
313.15 K, x2 = 0.1999 | 1327.5 ± 2.1 | 10.7 ± 1.1
313.15 K, x2 = 0.3001 | 1349.4 ± 2.1 | 12.3 ± 1.2
313.15 K, x2 = 0.4 | 1367.2 ± 2.1 | 13.4 ± 1.3
313.15 K, x2 = 0.5001 | 1381.1 ± 2.1 | 15.4 ± 1.5
313.15 K, x2 = 0.5999 | 1392.2 ± 2.1 | 17.6 ± 1.8
313.15 K, x2 = 0.7 | 1401.6 ± 2.1 | 18.7 ± 1.9
313.15 K, x2 = 0.7995 | 1409.4 ± 2.1 | 21.2 ± 2.1
313.15 K, x2 = 0.8985 | 1416.1 ± 2.1 | 24.4 ± 2.4
323.15 K, x2 = 0 | 1244 ± 2 | 6.4 ± 0.6
323.15 K, x2 = 0.1 | 1288 ± 2 | 7.7 ± 0.8
323.15 K, x2 = 0.1999 | 1318.3 ± 2.1 | 8.4 ± 0.8
323.15 K, x2 = 0.3001 | 1340.2 ± 2.1 | 9.7 ± 1
323.15 K, x2 = 0.4 | 1357.8 ± 2.1 | 10.2 ± 1
323.15 K, x2 = 0.5001 | 1371.6 ± 2.1 | 11.9 ± 1.2
323.15 K, x2 = 0.5999 | 1382.8 ± 2.1 | 13.6 ± 1.4
323.15 K, x2 = 0.7 | 1392.1 ± 2.1 | 14.1 ± 1.4
323.15 K, x2 = 0.7995 | 1399.9 ± 2.1 | 16 ± 1.6
323.15 K, x2 = 0.8985 | 1406.6 ± 2.1 | 18.4 ± 1.8
333.15 K, x2 = 0 | 1235.4 ± 2 | 5.2 ± 0.5
333.15 K, x2 = 0.1 | 1279 ± 2.1 | 5.7 ± 0.6
333.15 K, x2 = 0.1999 | 1309 ± 2.1 | 6.3 ± 0.6
333.15 K, x2 = 0.3001 | 1331 ± 2.1 | 7.3 ± 0.7
333.15 K, x2 = 0.4 | 1348.4 ± 2.1 | 7.5 ± 0.8
333.15 K, x2 = 0.5001 | 1362.2 ± 2.1 | 9.2 ± 0.9
333.15 K, x2 = 0.5999 | 1373.3 ± 2.1 | 10.5 ± 1.1
333.15 K, x2 = 0.7 | 1382.6 ± 2.1 | 10.8 ± 1.1
333.15 K, x2 = 0.7995 | 1390.4 ± 2.1 | 12.2 ± 1.2
333.15 K, x2 = 0.8985 | 1397.1 ± 2.1 | 14.1 ± 1.4
343.15 K, x2 = 0 | 1225 ± 2 | 4.3 ± 0.4
343.15 K, x2 = 0.1 | 1269.9 ± 2.1 | 4.6 ± 0.5
343.15 K, x2 = 0.1999 | 1299.8 ± 2.1 | 5.1 ± 0.5
343.15 K, x2 = 0.3001 | 1321.8 ± 2.1 | 5.9 ± 0.6
343.15 K, x2 = 0.4 | 1339.1 ± 2.1 | 6.2 ± 0.6
343.15 K, x2 = 0.5001 | 1352.8 ± 2.1 | 7.3 ± 0.7
343.15 K, x2 = 0.5999 | 1363.9 ± 2.1 | 8.2 ± 0.8
343.15 K, x2 = 0.7 | 1373.2 ± 2.1 | 8.6 ± 0.9
343.15 K, x2 = 0.7995 | 1381 ± 2.1 | 9.5 ± 1
343.15 K, x2 = 0.8985 | 1387.6 ± 2.1 | 10.7 ± 1.1

O=S1(=O)CCCC1 [sulfolane] + OCC(O)CO
Conditions | mass density [kg/m3] | viscosity [mPa·s]
313.15 K, x2 = 0 | 1251.7 ± 2 | 8.1 ± 0.8
313.15 K, x2 = 0.1002 | 1249.6 ± 2 | 8.5 ± 0.9
313.15 K, x2 = 0.2002 | 1248.8 ± 2 | 10.5 ± 1.1
313.15 K, x2 = 0.3002 | 1248.4 ± 2 | 14.4 ± 1.4
313.15 K, x2 = 0.4001 | 1247.8 ± 2 | 19.2 ± 1.9
313.15 K, x2 = 0.5001 | 1247.5 ± 2 | 30.4 ± 3.1
313.15 K, x2 = 0.5999 | 1247.5 ± 2 | 46.2 ± 4.6
313.15 K, x2 = 0.6999 | 1247.5 ± 2 | 70.7 ± 7.1
313.15 K, x2 = 0.7999 | 1248.5 ± 2 | 101 ± 10
313.15 K, x2 = 0.8993 | 1248.9 ± 2 | 164 ± 17
323.15 K, x2 = 0 | 1244 ± 2 | 6.4 ± 0.6
323.15 K, x2 = 0.1002 | 1240.9 ± 2 | 7.2 ± 0.7
323.15 K, x2 = 0.2002 | 1240.1 ± 2 | 8.5 ± 0.9
323.15 K, x2 = 0.3002 | 1239.7 ± 2 | 11.2 ± 1.1
323.15 K, x2 = 0.4001 | 1239.2 ± 2 | 14.4 ± 1.4
323.15 K, x2 = 0.5001 | 1239.1 ± 2 | 22 ± 2.2
323.15 K, x2 = 0.5999 | 1239.2 ± 2 | 32.2 ± 3.2
323.15 K, x2 = 0.6999 | 1239.7 ± 2 | 45.9 ± 4.6
323.15 K, x2 = 0.7999 | 1241.2 ± 2 | 66.5 ± 6.7
323.15 K, x2 = 0.8993 | 1241.9 ± 2 | 103 ± 10
333.15 K, x2 = 0 | 1235.4 ± 2 | 5.2 ± 0.5
333.15 K, x2 = 0.1002 | 1232.1 ± 2 | 5.8 ± 0.6
333.15 K, x2 = 0.2002 | 1231.3 ± 2 | 6.6 ± 0.7
333.15 K, x2 = 0.3002 | 1231 ± 2 | 8.3 ± 0.8
333.15 K, x2 = 0.4001 | 1230.7 ± 2 | 10.4 ± 1
333.15 K, x2 = 0.5001 | 1230.7 ± 2 | 14.6 ± 1.5
333.15 K, x2 = 0.5999 | 1231.1 ± 2 | 20.3 ± 2
333.15 K, x2 = 0.6999 | 1232 ± 2 | 28.8 ± 2.9
333.15 K, x2 = 0.7999 | 1233.7 ± 2 | 41.8 ± 4.2
333.15 K, x2 = 0.8993 | 1234.8 ± 2 | 61.7 ± 6.2
343.15 K, x2 = 0 | 1225 ± 2 | 4.3 ± 0.4
343.15 K, x2 = 0.1002 | 1223.2 ± 2 | 4.7 ± 0.5
343.15 K, x2 = 0.2002 | 1222.5 ± 2 | 5.3 ± 0.5
343.15 K, x2 = 0.3002 | 1222.3 ± 2 | 6.3 ± 0.6
343.15 K, x2 = 0.4001 | 1222.3 ± 2 | 7.7 ± 0.8
343.15 K, x2 = 0.5001 | 1222.7 ± 2 | 10.2 ± 1
343.15 K, x2 = 0.5999 | 1223.3 ± 2 | 13.6 ± 1.4
343.15 K, x2 = 0.6999 | 1224.1 ± 2 | 18.5 ± 1.9
343.15 K, x2 = 0.7999 | 1226.2 ± 2 | 26.6 ± 2.7
343.15 K, x2 = 0.8993 | 1227.5 ± 2 | 38 ± 3.8
353.15 K, x2 = 0 | 1215 ± 2 | 3.7 ± 0.4
353.15 K, x2 = 0.1002 | 1214.3 ± 2 | 3.9 ± 0.4
353.15 K, x2 = 0.2002 | 1213.7 ± 2 | 4.3 ± 0.4
353.15 K, x2 = 0.3002 | 1213.6 ± 2 | 4.9 ± 0.5
353.15 K, x2 = 0.4001 | 1213.8 ± 2 | 6 ± 0.6
353.15 K, x2 = 0.5001 | 1214.4 ± 2 | 7.4 ± 0.7
353.15 K, x2 = 0.5999 | 1215.3 ± 2 | 9.8 ± 1
353.15 K, x2 = 0.6999 | 1216.1 ± 2 | 12.9 ± 1.3
353.15 K, x2 = 0.7999 | 1218.5 ± 2 | 18 ± 1.8
353.15 K, x2 = 0.8993 | 1220.2 ± 2 | 24.9 ± 2.5
363.15 K, x2 = 0 | 1206 ± 2 | 3.2 ± 0.3
363.15 K, x2 = 0.1002 | 1205.3 ± 2 | 3.3 ± 0.3
363.15 K, x2 = 0.2002 | 1204.8 ± 2 | 3.5 ± 0.4
363.15 K, x2 = 0.3002 | 1204.8 ± 2 | 4 ± 0.4
363.15 K, x2 = 0.4001 | 1205.1 ± 2 | 4.7 ± 0.5
363.15 K, x2 = 0.5001 | 1205.9 ± 2 | 5.8 ± 0.6
363.15 K, x2 = 0.5999 | 1206.9 ± 2 | 7.4 ± 0.7
363.15 K, x2 = 0.6999 | 1208 ± 2 | 9.4 ± 0.9
363.15 K, x2 = 0.7999 | 1210.7 ± 2 | 12.7 ± 1.3
363.15 K, x2 = 0.8993 | 1212.7 ± 2 | 17.1 ± 1.7
